Reference: patent publication US20090111710A1, “CELLULAR SIGNALING PATHWAY BASED ASSAYS, REAGENTS AND KITS” (Cell NetwoRX LLC, priority 2005, published 2009)

Assays:
[1] = test system: PKC □; conditions: read-out: Reported Potency IC50; cited from earlier work
[2] = test system: PKC subtypes □, □ and □; conditions: >uM; cited from earlier work
[3] = test system: relevant target and pathway; conditions: cited from earlier work
[4] = target: MEK ½ (Homo sapiens, UniProt Q02750); conditions: first value, read-out: Reported Potency IC50; cited from earlier work
[5] = target: MEK ½ (Homo sapiens, UniProt P36507); conditions: second value, read-out: Reported Potency IC50; cited from earlier work
[6] = target: ERK1 (Homo sapiens, UniProt P27361); conditions: read-out: Selectivity: ERK1 activity IC50; cited from earlier work
[7] = target: T1, MKK4 (Homo sapiens, UniProt P45985); conditions: read-out: Selectivity: MKK4 activity IC50; cited from earlier work
T1 sequence (P45985 1-399): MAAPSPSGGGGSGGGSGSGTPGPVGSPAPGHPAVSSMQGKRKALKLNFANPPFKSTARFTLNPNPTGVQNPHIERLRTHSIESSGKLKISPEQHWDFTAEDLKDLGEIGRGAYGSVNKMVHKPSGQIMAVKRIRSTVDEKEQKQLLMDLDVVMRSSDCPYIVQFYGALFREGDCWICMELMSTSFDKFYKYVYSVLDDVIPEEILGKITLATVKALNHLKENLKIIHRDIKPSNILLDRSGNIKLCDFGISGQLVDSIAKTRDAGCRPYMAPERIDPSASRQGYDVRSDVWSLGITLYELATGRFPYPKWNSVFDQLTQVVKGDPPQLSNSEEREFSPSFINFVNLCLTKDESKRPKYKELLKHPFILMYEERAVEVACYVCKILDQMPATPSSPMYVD

[8] = test system: angiogenesis; conditions: in vivo; cited from earlier work
[9] = test system: HUVEC; conditions: 48 hrs, 20 nM VEGF; standard deviation of 10%
Procedure: The cellular phenotypes, cell proliferation and/or cell death are measured using viable cell number determination methods. Measurement of cell proliferation and cytotoxicity using the luminescent assay ViaLight™-HS High Sensitivity Cytotoxicity and Cell Proliferation BioAssay Kit from Cambrex (East Rutherford, N.J.) is optimized for HUVECs. Linear detection of cell proliferation or cell survival is possible from as few as 100 and up to 10^6 cells. […] An alternative measurement of both ATP and ADP levels provides a ratio measurement indicating cells proliferation versus cell death.

[10] = Phase III, patients with wet AMD; cited from earlier work

MEK ½ (Homo sapiens, UniProt P36507), sequence (P36507 whole entry): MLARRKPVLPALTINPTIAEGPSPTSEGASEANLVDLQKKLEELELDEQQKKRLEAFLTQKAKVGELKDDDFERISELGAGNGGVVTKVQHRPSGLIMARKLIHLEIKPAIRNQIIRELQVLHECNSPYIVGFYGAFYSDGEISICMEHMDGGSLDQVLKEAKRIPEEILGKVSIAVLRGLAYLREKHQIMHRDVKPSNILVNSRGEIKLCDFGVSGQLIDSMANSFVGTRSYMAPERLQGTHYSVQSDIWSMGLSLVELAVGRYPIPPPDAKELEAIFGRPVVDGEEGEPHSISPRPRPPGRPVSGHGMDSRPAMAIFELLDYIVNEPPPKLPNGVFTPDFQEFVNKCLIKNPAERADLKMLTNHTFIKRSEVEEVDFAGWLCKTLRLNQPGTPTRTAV
MEK ½ (Homo sapiens, UniProt Q02750), sequence (Q02750 whole entry): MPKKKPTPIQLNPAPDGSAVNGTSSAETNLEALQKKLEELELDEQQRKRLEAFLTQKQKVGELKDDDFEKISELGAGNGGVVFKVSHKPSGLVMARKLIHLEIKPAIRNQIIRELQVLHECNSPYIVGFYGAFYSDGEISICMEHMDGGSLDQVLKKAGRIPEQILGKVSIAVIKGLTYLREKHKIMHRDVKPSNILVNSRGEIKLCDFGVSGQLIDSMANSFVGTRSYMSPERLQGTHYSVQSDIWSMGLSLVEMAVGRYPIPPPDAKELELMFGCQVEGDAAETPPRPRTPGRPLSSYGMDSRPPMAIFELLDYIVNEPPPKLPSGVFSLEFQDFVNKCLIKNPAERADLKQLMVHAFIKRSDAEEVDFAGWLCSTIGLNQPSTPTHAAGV
ERK1, sequence (P27361 whole entry, species assumed): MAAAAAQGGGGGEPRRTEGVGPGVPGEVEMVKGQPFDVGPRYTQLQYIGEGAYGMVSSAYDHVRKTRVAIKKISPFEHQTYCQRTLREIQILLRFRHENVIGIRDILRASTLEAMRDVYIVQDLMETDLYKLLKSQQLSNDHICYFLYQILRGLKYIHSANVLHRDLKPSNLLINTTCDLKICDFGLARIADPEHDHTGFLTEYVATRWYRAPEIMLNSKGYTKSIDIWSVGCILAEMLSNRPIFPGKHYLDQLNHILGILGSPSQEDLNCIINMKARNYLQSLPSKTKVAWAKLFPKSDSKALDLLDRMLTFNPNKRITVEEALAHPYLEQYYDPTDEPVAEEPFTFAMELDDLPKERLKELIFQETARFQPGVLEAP

In the case of Cn1c2ccccc2c2c3c(c4c5ccccc5n(CCC#N)c4c21)CNC3=O [Go 6976], the IC50 [1] is listed as 2.3 nM, the “Selectivity: effect on the kinase activity of PKC subtypes □, □ and □” value [2] is listed as “>uM no effect” and the “activity against the relevant target and pathway in vivo” value (“activity … in vivo” for short) [3] is listed as “shown activity”.

For C[S+]([O-])c1ccc(-c2nc(-c3ccncc3)c(-c3ccc(F)cc3)[nH]2)cc1 (stereo not drawn) [SB 203580], the “activity … in vivo” value [3] is given as “shown activity”.

In the case of N#C/C(=C(/N)Sc1ccc(N)cc1)c1ccccc1C(F)(F)F [SL327], the IC50 [4] is given as 180 nM, the IC50 [5] is given as 220 nM and the IC50 [6] is given as > 10000 nM. The IC50 [7] was > 10000 nM.

For Cc1cc(C)c(/C=C2\C(=O)Nc3ccccc32)[nH]1 [SU5416], the “activity … in vivo” value [3] is given as “shown activity” and the “angiogenesis in the wound-healing model” value [8] is given as “block angiogenesis”.

In the case of VEGF, the “signal to noise for HUVEC proliferation” value [9] is reported as 2 fold.

B1: Lucentis: humanized antibody fragment developed at Genentech, designed to bind and inhibit Vascular Endothelial Growth Factor A (antibody, chains of the INN, looked up, V domains shown)
VH: EVQLVESGGGLVQPGGSLRLSCAASGYDFTHYGMNWVRQAPGKGLEWVGWINTYTGEPTYAADFKRRFTFSLDTSKSTAYLQMNSLRAEDTAVYYCAKYPYYYGTSHWYFDVWGQGTLVTVSS
VL: DIQLTQSPSSLSASVGDRVTITCSASQDISNYLNWYQQKPGKAPKVLIYFTSSLHSGVPSRFSGSGSGTDFTLTISSLQPEDFATYYCQQYSTVPWTFGQGTKVEIK
modifications: Fab
In the case of B1, the vision [10] is listed as “improved vision”.
